In patent US12329726B2, “Biomarkers for efficacy of prophylactic treatments against stress-induced affective disorders” (The Trustees of Columbia University in the City of New York, priority 2017, dated 2025):

Experiments:
mouse models of stress = conditions: cited from earlier work
PFC metabolites [1] = test: Metabolomic profiling of PFC, non-stressed mice (ketamine, no shock)
[2] = test system: treatment-resistant MDD (TRD) patients; conditions: cited from earlier work
plasma metabolites [3] = test: Metabolomic profiling of plasma, non-stressed mice (ketamine, no shock); conditions: prophylactic ketamine, mice not administered shocks
plasma metabolites [4] = test: Untargeted metabolomic profiling of plasma, stressed mice (ketamine + CFC); conditions: prophylactic ketamine + stress
HPC metabolites [5] = test: Metabolomic profiling of HPC, non-stressed mice (ketamine, no shock); conditions: context exposure group (no shock), following prophylactic ketamine administration
129S6/SvEvTac mice [6] = test: Context exposure without shocks (no-shock control), freezing; conditions: ketamine 30 mg kg-1 i.p., 1 week before context exposure without shocks; vs saline
[7] = test system: plasma amino acid-derived neurotransmitters and precursors; test: Separate plasma analysis of metabolites involved in neurotransmission, stressed mice; assay type: in vivo
HPC metabolites [8] = test: Untargeted metabolomic profiling of hippocampus (HPC), stressed mice (ketamine + CFC)
PFC metabolites [9] = test: Untargeted metabolomic profiling of prefrontal cortex (PFC), stressed mice (ketamine + CFC)
129S6/SvEvTac mice [10] = test: 3-shock contextual fear conditioning (CFC), freezing; conditions: ketamine 30 mg kg-1 i.p., single dose 1 week before 3-shock CFC; vs saline
[11] = molecular target: T1, kappa-opioid receptor (KOR) (Rattus norvegicus, UniProt P34975); conditions: administered before the FPS test; cited from earlier work
T1 construct: host or cells: live rats (behavioural test)
T1 sequence (P34975 whole entry): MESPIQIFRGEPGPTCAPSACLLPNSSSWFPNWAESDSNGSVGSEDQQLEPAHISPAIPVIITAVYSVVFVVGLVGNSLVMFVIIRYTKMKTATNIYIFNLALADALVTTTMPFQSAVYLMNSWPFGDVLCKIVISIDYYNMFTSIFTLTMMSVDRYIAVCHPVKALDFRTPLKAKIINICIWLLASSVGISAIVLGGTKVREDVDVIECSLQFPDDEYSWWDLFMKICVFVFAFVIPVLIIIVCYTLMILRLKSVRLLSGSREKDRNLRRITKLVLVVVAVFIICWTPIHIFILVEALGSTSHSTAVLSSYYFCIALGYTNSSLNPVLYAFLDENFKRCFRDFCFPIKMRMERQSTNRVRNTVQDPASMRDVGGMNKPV

[12] = single injection 30 mg kg-1, 1 week before a stressor
[13] = ketamine 30 mg/kg without CFC stress
[14] = Plasma, CFC group, following prophylactic ketamine administration
[15] = HPC, CFC group, following prophylactic ketamine administration
[16] = prophylactic ketamine + stress, MetaboAnalyst 3.0
[17] = PFC, CFC group, following prophylactic ketamine administration
[18] = prophylactic ketamine + stress, vs saline

SMILES: CNC1(c2ccccc2Cl)CCCCC1=O (racemic) [ketamine, (RS)-2-(2-chlorophenyl)-2-(methylamino)cyclohexanone]
- Time window for prophylactic efficacy before a stressor (mouse models of stress; not 1 month or 1 hour before): approximately 1 week
- Duration of protection after injection (mouse models of stress; [12]): up to 4 weeks
- Stress-induced depressive-like behavior and social avoidance behavior (mouse models of stress; [12]): prevented stress-induced depressive-like behavior and social avoidance behavior
- Number of purine metabolites significantly altered in one hemisphere of PFC or HPC, no stress (PFC metabolites [1]; [13]): 3 metabolites
- Number of pyrimidines significantly altered in one hemisphere of PFC or HPC, no stress (PFC metabolites [1]; [13]): 2
- Purine metabolite changes in PFC and HPC without stress (PFC metabolites [1]; prophylactic ketamine without stress): these changes were not observed
- Amino acid-derived neurotransmitter metabolites in brain of non-stressed mice (PFC metabolites [1]; prophylactic ketamine, non-stressed mice): only the inhibitory neurotransmitter metabolite taurine was changed
- Persistence of antidepressant effects ([2]; following a single infusion): 1-2 weeks
- Antidepressant onset ([2]; single infusion, TRD patients): ≤ 2 h
- Purine or pyrimidine metabolites in plasma, no shocks (plasma metabolites [3]): no changes in purines or pyrimidine metabolites were observed
- Pathway analysis of changed metabolites in plasma (plasma metabolites [4]): purine metabolism, pyrimidine metabolism, the citrate cycle (TCA cycle), and the pentose phosphate pathway were most significantly changed
- Ribose and ribulose phosphate (pentose phosphate pathway intermediates) in plasma (plasma metabolites [4]): significantly changed
- Purine metabolites in the plasma (plasma metabolites [4]; vs saline): significantly increased purine metabolites
- Pyrimidine metabolites in the plasma (plasma metabolites [4]; with the exception of 5,6-dihydrouridine): increased expression of pyrimidine metabolites
- Taurine (Tau) level, change (HPC metabolites [5]): Increase
- Freezing behavior during context exposure or re-exposure, no shocks (129S6/SvEvTac mice [6]): did not alter freezing behavior during context exposure or re-exposure
- 5-Hydroxy-L-tryptophan (5-HTP) level, change [7, 14]: Increase
- D-Serine (Ser) level, change [7, 14]: Decrease
- Gamma-aminobuytric acid (GABA) level, change [7, 14]: Decrease
- L-Glutamic acid (Glu) level, change [7, 14]: Decrease
- N-Acetyl-L-tyrosine (NALT) level, change [7, 14]: Decrease
- O-Phosphoethanolamine (PE) level, change [7, 14]: Increase
- Plasma serine and glutamic acid (excitatory neurotransmitters) ([7]; prophylactic ketamine + stress): serine and glutamic acid were decreased
- D-Alanine (Ala) level, change (HPC metabolites [8]; [15]): Increase
- Gamma-aminobuytric acid (GABA) level, change (HPC metabolites [8]; [15]): Increase
- L-Glutamic acid (Glu) level, change (HPC metabolites [8]; [15]): Increase
- O-Phosphoethanolamine (PE) level, change (HPC metabolites [8]; [15]): Increase
- Taurine (Tau) level, change (HPC metabolites [8]; [15]): Increase
- Pathway analysis of changed metabolites in the HPC: further pathways (HPC metabolites [8]; [16]): altered alanine, aspartate, and glutamate metabolism; glutamine and glutamate metabolism; and taurine and hypotaurine metabolism
- Pathway analysis of changed metabolites in the HPC: purine metabolism (HPC metabolites [8]; [16]): purine metabolism was also significantly altered
- D-Serine (Ser) level, change (PFC metabolites [9]; [17]): Decrease
- Glycine (Gly) level, change (PFC metabolites [9]; [17]): Decrease
- L-Tyrosine (Tyr) level, change (PFC metabolites [9]; [17]): Decrease
- Phenylalanine (Phe) level, change (PFC metabolites [9]; [17]): Decrease
- Correlation of dUDP expression in the PFC with freezing levels upon context re-exposure (PFC metabolites [9]; mice given prophylactic ketamine prior to stress, regression analysis): positively correlated with freezing levels
- Number of metabolites changed in the same direction in both hemispheres of the PFC and HPC (PFC metabolites [9]; of the 8 changed, prophylactic ketamine + stress): 6 metabolites
- Number of metabolites changed in both hemispheres of the PFC and HPC (PFC metabolites [9]; prophylactic ketamine 30 mg kg-1 + CFC stressor, PFC and HPC): 8 metabolites
- Pathway analysis of changed metabolites in the PFC (PFC metabolites [9]; [16]): purine metabolism; phenylalanine, tyrosine, and tryptophan metabolism; and phenylalanine metabolism are most significantly changed
- Levels of AMP and ATP in PFC, HPC and plasma (PFC metabolites [9]; prophylactic ketamine + stress, both hemispheres of PFC and HPC, and plasma): increases levels of adenosine monophosphate (AMP) and ATP
- Inhibitory neurotransmitter metabolites in PFC and HPC (PFC metabolites [9]; prophylactic ketamine + stress, e.g. alanine, GABA, taurine): almost all inhibitory neurotransmitter metabolites were increased
- Excitatory neurotransmitter metabolites in PFC and HPC (PFC metabolites [9]; prophylactic ketamine + stress, e.g. serine, tyrosine, phenylalanine, exception glutamic acid): nearly all excitatory neurotransmitter metabolites were decreased
- Adenosine and guanosine metabolites in both hemispheres of PFC and HPC (PFC metabolites [9]; [18]): increased
- Inosine metabolites in both hemispheres of PFC and HPC (PFC metabolites [9]; [18]): decreased
- Fear response (freezing) during context re-exposure (129S6/SvEvTac mice [10]): attenuated the fear response
- Freezing behavior during CFC encoding (training) (129S6/SvEvTac mice [10]): did not alter freezing behavior during CFC encoding

SMILES: Oc1ccc2c3c1O[C@H]1c4[nH]c5c(c4C[C@@]4(O)[C@@H](C2)N(CC2CC2)CC[C@]314)C[C@@]1(O)[C@H]2Cc3ccc(O)c4c3[C@@]1(CCN2CC1CC1)[C@H]5O4 [norBNI, nor-binaltorphimine]
- Conditioned fear in FPS test [11]: attenuated conditioned fear
